These results are taken from US5521293A (Lever Brothers Company, Division of Conopco, Inc., priority 1995, dated 1996).

Molecules are shown by their SMILES. Where two headings read alike, the source gives them in different places.

Data set [1] is described as follows: Effectiveness in reducing surface tension (surface pressure at the CMC). Type of data set: physicochemical. To be noted: 60° C., estimated by linear extrapolation. The text has this:
Effectiveness of a surfactant in reducing surface tension is defined as the maximum reduction in surface tension that can be obtained regardless of the bulk phase surfactant concentration.
As mentioned before, surface tension reduction depends on the replacement of water molecules at the interface by surfactant molecules, therefore the effectiveness of a surfactant in reducing interfacial surface tension should reflect the saturated concentration of surfactant at the interface relative to that in bulk liquid phase. During this process the surface tension of water steadily decreases as bulk phase surfactant concentration increases. This will continue until the concentration reaches the critical micelle concentration (CMC), above which the surface tension remains nearly unchanged and the interface is saturated with surfactant. The surface tension at the CMC is therefore very close to the minimum interfacial tension or maximum surface pressure that the system can achieve. The surface pressure at this point, cmc, is a suitable measure of the effectiveness of a surfactant in reducing surface tension and is given as:
cmc =20+2.3 nRT(Γmax) log[CMC/C20 ]
n=1 which represents the number of ions whose surface concentration changes with the change in liquid phase surfactant concentration.
R=8.314×107 ergs/mol K (Gas Constant)
Γmax =-1/2·303RT(∂γ/∂log [Conc])T=3.85×10^-10 mole/cm^2
CMC/C20 =is the ratio of the critical micelle concentration to the bulk phase surfactant concentration necessary to reduce the surface tension of water by 20 dyn/cm.
The effectiveness of various surfactants in reducing surface tension ( cmc) were determined and are set forth below: […]

Data set [2] in a line: Effectiveness of adsorption at the interface (surface excess concentration at surface saturation). The data set is classed as physicochemical. As to conditions: 60° C., estimated by linear extrapolation. The source says: The surface excess concentration at surface saturation (Γmax) is defined as a measure of the effectiveness of surfactant adsorption at the water/air interface and represents the maximum value to which adsorption can be obtained. Effectiveness of adsorption is related to the interfacial area occupied by the surfactant molecule. The smaller the effective cross-sectional area of a surfactant at the interface, the greater its effectiveness of adsorption. The effectiveness of adsorption is an important factor in determining surfactant properties such as detergency, foaming, wetting or emulsification. While not wishing to be bound by theory, it is believed that surfactants that absorb effectively at the interface tend have tightly packed coherent interfacial films and often provide better surfactant benefits than those with loosely packed noncoherent films. The effectiveness of adsorption of C8 /C10 oxypropyl D-gluconarnide was determined using the Gibbs equation given as:
Γmax =-1/2.303RT(∂γ/∂log[Conc])T
(∂γ/∂log[Conc)T =-24.574971 ergs/cm^2 (which is equivalent to the
slope of a plot of γ versus log[Conc]) R=8.3 14×10^7 ergs/mol K (Gas Constant)
The surface excess concentration at surface saturation (Γmax) of various surfactants were determined and are set forth below: […]

Data set [3] in a line: Area per molecule at the interface. The data set is classed as physicochemical. To be noted: 60° C., estimated by linear extrapolation. The text has this:
The area per molecule of a surfactant at the water/air interface provides information on the degree of packing and the orientation of the adsorbed surfactant molecule. While not wishing to be bound by theory, it is believed that surfactants that have small area per molecule values tend to pack more closely at the interface than those with large area per molecule values. From the surface excess concentration at surface saturation (Γmax), the area per molecule (am) of C8 /C10 oxypropyl D-gluconamide was determined and is given by:
am =1×10^16 /Nav Γmax
Γmax =-1/2·303RT(∂γ/∂log[Conc])T
NAV =6.0221×10^23 per gram mole (Avogadro's Number)
The area per molecule (am) of several surfactants were-determined and are set forth below: […]

For data set [4] the following is noted: cited from earlier work.
The conditions of data set [5]: cited from earlier work. This is another data set of the same source.
For data set [6] the following is noted: cited from earlier work. The source holds these as a separate data set.
Data set [7] in a line: Krafft point of aqueous dispersion of aldonamide. The data set is classed as physicochemical. As to conditions: for Krafft Point (1.0%): 1.0% in water by weight. The protocol:
The temperature at and above which surfactants begin to form micelles instead of precipitates is referred to as the Krafft point (Tk) and at this temperature the solubility of a surfactant becomes equal to its CMC (numerical value at which micelles are formed).
The Krafft point was measured by preparing 650 ml of a 0.1% or 1.0% dispersion of aldonamide in water by weight. If the surfactant was soluble at room temperature, the solution was slowly cooled to 0° C. […] (less than zero). If it precipitated out of solution, the temperature at which precipitation occurs was taken as the Krafft point.
If the surfactant was insoluble at :room temperature, the dispersion was slowly heated until the solution became homogeneous. It was then slowly cooled until precipitation occurred. The temperature at which the surfactant precipitates out of solution upon cooling was taken as the Krafft point.

Data set [8] is described as follows: Ross-Miles foam height. Type of data set: physicochemical. More on the design: key: X: low water solubility, foam height cannot be measured. As to conditions: Example 84; for Foam Height Final (symbol): after 10 minutes. The protocol:
(§1) Since most of the foaming data on surfactants is typically obtained by the Ross-Miles Foam Height Assay (Ross, J. and Miles, G. D. Am Soc. for Testing Material Method D1173-63 Philadelphia, Pa. (1953); Oil & Soap (1958) 62:1260) the foaming ability of these surfactants were acquired using this method.
(§2) In the Ross-Miles method, 200 mL of a surfactant solution contained in a pipette of specified dimensions with a 2.9-mm-i.d. orifice is allowed to fall 90 cm onto 50 mL of the same solution contained in a cylindrical vessel maintained at a given temperature by means of a water jacket. The height of the foam produced in the cylindrical vessel is read immediately after all the solution has run out of the pipette and then again after a given amount of time.
(§3) Using this method, the foam production (initial foam height in mm) and foam stability (final foam height after 10 minutes in mm) were measured at 0.1% aldonamide concentration, 40° C. and 0 ppm (parts per million) hardness. Aldonamides that were not soluble at 40° C. were measured at about 5°-10° C. above their Krafft points.

Data set [9] is described as follows: Critical micelle concentration (Wilhelmy plate method). As to conditions: 60° C. Type of data set: physicochemical. The protocol: The critical micelle concentration (CMC) is defined as the concentration at which a surfactant forms micelles in aqueous solution. Micellization is the preferred interfacial phenomena, since certain surfactant benefits such as detergency (the solubilization of soils), foaming, wetting or emulsification depend on the formation of these aggregates in solution.
The CMC value of C8 /C10 oxypropyl D-gluconamide was determined by plotting surface tension as a function of log(concentration) and extrapolating linear points to obtain an intersection point. The concentration at this point was taken as the CMC. The technique used was the Wilhelmy plate method and the instrument used was a Lauda Auto-Tensiometer. While wishing not to be bound to theory, it is believed that surfactants with low CMC values form micelles more readily at lower concentrations than those with high CMC values.
The critical micelle concentration (CMC) value of C8 /C10 oxypropyl D-gluconamide (molecular weight=375.02 g/mole, 65.9% C8, 34.1% C10) was determined and is set forth below: […]

Data set [10] is described as follows: Water solubility. As to conditions: in words. The data set is classed as physicochemical.
Data set [11] can be described thus: Ross-Miles foam height. Type of data set: physicochemical. More on the design: key: X: low water solubility. foam height cannot be measured. To be noted: Examples 82-83. The protocol:
as §1, §2, §3

Where [12] appears, read: listed as Dodecyl D-Gluconamide.
The mark [13] stands for this setting: listed as dodecyl D-gluconamide.

With `CCCCCCCCCCCCOCCOCCOCCO` [Dodecyltri(oxyethylene) Ether], the “surface pressure at the CMC (cmc)” value in [1] is on record as 41.4 dyn/cm; in [4] (25° C.), 44.1 dyn/cm; in [4] (40° C.) it was 43.1 dyn/cm. In addition, the figures for the “surface excess concentration at surface saturation (Γmax)” value (“surface excess concentration” for short) in data set [2], in [5] (25° C.) and in [5] (40° C.) were 3.83 × 10^-10 mole/cm^2, 3.98 × 10^-10 mole/cm^2 and 3.90 × 10^-10 mole/cm^2, respectively. For the same molecule, the “area per molecule (am)” value was 45.4 Å^2 in data set [3], 41.7 Å^2 in data set [6] (25° C.) and 42.5 Å^2 in data set [6] (40° C.).

Take `CCCCCCCCCCCCOCCOCCOCCOCCO` [Dodecyltetra(oxyethylene) Ether]: the figures for the “surface pressure at the CMC (cmc)” value in [1], in data set [4] (25° C.) and in data set [4] (40° C.) were 40.7 dyn/cm, 43.4 dyn/cm and 42.0 dyn/cm, respectively. The “surface excess concentration” value in [2] is 3.01 × 10^-10 mole/cm^2; in [5] (25° C.) it was 3.63 × 10^-10 mole/cm^2; in data set [5] (40° C.) it was 3.41 × 10^-10 mole/cm^2. In addition, the “area per molecule (am)” value was 53.3 Å^2 in data set [3], 45.7 Å^2 in [6] (25° C.) and 48.7 Å^2 in data set [6] (40° C.).

For `CCCCCCCCCCCCCCCCCCNC(=O)[C@H](O)[C@@H](O)[C@H](O[C@@H]1O[C@H](CO)[C@H](O)[C@H](O)[C@H]1O)[C@H](O)CO` [UU, C18 D-Lactobionamide], the “Krafft Point (1.0%)” value in data set [7] is 82 °C. Also, in data set [8], the “Foam Height Final (symbol)” value is “X” and the “Foam Height Initial (symbol)” value was “X”.

`CCCCCCCCCCCCOCCOCCOCCOCCOCCOCCOCCOCCO` [Dodecylocta(oxyethylene) Ether]: the “surface pressure at the CMC (cmc)” value is on record as 36.3 dyn/cm in data set [1], 37.2 dyn/cm in data set [4] (25° C.) and 37.3 dyn/cm in [4] (40° C.). Further, the “surface excess concentration” value in data set [2] is 2.40 × 10^-10 mole/cm^2; in [5] (25° C.), 2.52 × 10^-10 mole/cm^2; in data set [5] (40° C.), 2.46 × 10^-10 mole/cm^2. Moreover, the figures for the “area per molecule (am)” value in [3], in data set [6] (25° C.) and in [6] (40° C.) were 69.0 Å^2, 66.0 Å^2 and 67.4 Å^2, respectively.

Take `CCCCCCCCCCCCOCCOCCOCCOCCOCCO` [Dodecylpenta(oxyethylene) Ether]: the “surface pressure at the CMC (cmc)” value in data set [1] was 40.7 dyn/cm; in [4] (25° C.), 41.5 dyn/cm; in data set [4] (40° C.), 41.2 dyn/cm. In addition, the “surface excess concentration” value in data set [2] is given as 3.16 × 10^-10 mole/cm^2; in data set [5] (25° C.), 3.31 × 10^-10 mole/cm^2; in data set [5] (40° C.), 3.28 × 10^-10 mole/cm^2. For the same molecule, the “area per molecule (am)” value in [3] is 52.3 Å^2; in data set [6] (25° C.) it was 50.1 Å^2; in [6] (40° C.) it was 50.6 Å^2.

In the case of `CCCCCCCCCCCCCCCNC(=O)[C@H](O)[C@@H](O)[C@H](O[C@@H]1O[C@H](CO)[C@H](O)[C@H](O)[C@H]1O)[C@H](O)CO` [SS, C15 D-Lactobionamide], the “Krafft Point (1.0%)” value in data set [7] turned out to be 84 °C. Further, in data set [8], the “Foam Height Final (symbol)” value is “X” and the “Foam Height Initial (symbol)” value was “X”.

On to `CCCCCCCCCCCCNC(=O)[C@H](O)[C@@H](O)[C@H](O)[C@H](O)CO` [H, Dodecyl D-Gluconamide], for which the “Krafft Point (0.1%)” value in data set [7] (0.1% in water by weight) amounted to 91 °C. Further, the “CMC / micelle formation (in words)” value in [9] (setting [12]) is reported as “None”; in [9] (setting [13]), “can not form micelles”. Also, the water solubility entry in [10] (setting [12]) is reported as “Insoluble”; in data set [10] (setting [13]), “insoluble in water”. In addition, the “Foam Height Final (symbol)” value in data set [11] (after 10 minutes) is “X”. In addition, in data set [11] (initial), the “Foam Height Initial (symbol)” value is recorded as “X”.

On to `CCCCCCCCCCCCOCCOCCOCCOCCOCCOCCOCCO` [Dodecylhepta(oxyethylene) Ether], for which the “surface pressure at the CMC (cmc)” value is on record as 36.8 dyn/cm in data set [1], 38.3 dyn/cm in data set [4] (25° C.) and 38.5 dyn/cm in data set [4] (40° C.). Also, the “surface excess concentration” value in data set [2] is on record as 2.71 × 10^-10 mole/cm^2; in data set [5] (25° C.), 2.90 × 10^-10 mole/cm^2; in [5] (40° C.), 2.77 × 10^-10 mole/cm^2. Moreover, the “area per molecule (am)” value is recorded as 61.0 Å^2 in [3], 57.3 Å^2 in data set [6] (25° C.) and 59.9 Å^2 in data set [6] (40° C.).
